The results in this text go back to ChEMBL document CHEMBL5634083, “Targeting polyketide synthase 13 for the treatment of tuberculosis” (Eur J Med Chem, 2023).

In brackets after ≈: the same amount, converted by molar mass.

Holding throughout (format): functional
The test system of assay [1] is Mycobacterium tuberculosis. Put plainly: Antimycobacterial activity against multi-drug resistant Mycobacterium tuberculosis.
The subject of assay [2] is Mycobacterium tuberculosis. The experiment in a line: Antibacterial activity against fluoroquinolone-resistant Mycobacterium tuberculosis H37Rv assessed as reduction in bacterial growth measured after 16 to 18 hrs by serial dilution method. The note with it: time 16-18 hrs.
The test system of assay [3] is Mycobacterium tuberculosis. Put plainly: Antitubercular activity against multi-drug resistant Mycobacterium tuberculosis assessed as reduction in microbial growth measured after 3 weeks by resazurin microplate reader assay. The note with it: 504 h. Background: Alamar Blue is a resazurin reagent that responds to reducing activity.

In general, MIC refers to the least concentration at which growth counts as inhibited. In assay [1], `CCOC(=O)c1c(NC(=O)c2c(F)c(F)c(F)c(F)c2F)sc2c1CCN(CC)C2` gave an MIC of 0.2 µM (≈ 0.0897 µg/mL).

The MIC90 is the lowest concentration that inhibits either 90% of growth or 90% of the strains tested, depending on the study. As to `CC(=O)c1c(C)n(-c2ccc(N(C)C)cc2)c2ccc(O)c(CN3CCCC3)c12`, the MIC90 in assay [2] turned out to be 0.244 µM (≈ 0.0955 µg/mL).

For the compound `O=C(c1ccccc1)c1cc(Cl)ccc1OCc1nc(-c2ccc(C(F)(F)F)cc2)no1`, in assay [3], the MIC was 16 µg/mL.
